Tested on: moderate-to-severe chronic spontaneous urticaria (CSU)
Assay: Phase 2 CSU study: urticaria activity score over 7 days (UAS7)
Format: in vivo, human
Settings: Omalizumab-naïve
Source text: The study comprises a 12 week, randomized, double-blind, placebo-controlled, multi-center, dose-ranging efficacy and safety phase, followed by a 40 week open label extension (OLE) phase (see FIG. 1). The study consists of three phases and an optional OLE phase. […] Clinically, CSU is characterized by the spontaneous and recurrent appearance of pruritic hives. The proposed primary endpoints were the UAS7 at Week 12 in EU and EU reference countries and the ISS7 in the US. Regardless of where a participant was from, all assessments were the same. The UAS7 score is a composite score containing both the HSS7 and the ISS7. This allowed a global assessment of the two key components of urticaria: hives and itch. […] The UAS is a validated PRO measure. […] The daily UAS scores range from 0 to 6 point/day. […] Patients were to complete the UAS using the e-diary. […] The following secondary endpoints were to be analyzed using the same approach as for the primary endpoint: • Change from baseline in UAS7 at Week 4 • Change from baseline in UAS7 at Week 12 (for US and US reference countries) • Change from baseline in ISS7 at Week 12 (except US and US reference countries) • Change from baseline in HSS7 at Week 12 The following responder secondary endpoints were to be analyzed using the Cochran-Mantel-Haenszel test adjusted by region: • Proportion of participants with UAS7<6 at Week 12 • Proportion of participants with UAS7=0 at Week 12 Participants who received selected prohibited medications and/or rescue medications were to be considered as non-responders for time points after the medication usage. For other participants, all available data including those collected during the off-treatment period were to be used to determine the responder/non-responder status. Missing data were to be considered as non-responders.

Structure (SMILES): CC(C)(C=C(C#N)C(=O)N1CCC[C@@H](n2nc(-c3ccc(Oc4ccccc4)cc3F)c3c(N)ncnc32)C1)N1CCN(C2COC2)CC1 [rilzabrutinib, (R)-2-[3-[4-amino-3-(2-fluoro-4-phenoxy-phenyl)pyrazolo[3,4-d]pyrimidin-1-yl]piperidine-1-carbonyl]-4-methyl-4-[4-(oxetan-3-yl)piperazin-1-yl]pent-2-enenitrile]
- Imputed non-responder n (%), UAS7 ≤6 (400 mg QPM, Week 8): 7 (18.9) n (%)
- Non-responder n (%), UAS7 = 0 (400 mg QPM, Week 8): 36 (97.3) n (%)
- Non-responder n (%), UAS7 ≤6 (400 mg QPM, Week 8): 34 (91.9) n (%)
- OR for rilzabrutinib vs. placebo, UAS7 = 0 (400 mg QPM, Week 8): 0.477
- RRD (%) for rilzabrutinib vs. placebo, UAS7 = 0 (400 mg QPM, Week 8): −2.7 %
- RRD (%) for rilzabrutinib vs. placebo, UAS7 ≤6 (400 mg QPM, Week 8): −8.4%
- Responder n (%), UAS7 = 0 (400 mg QPM, Week 8): 1 (2.7) n (%)
- Responder n (%), UAS7 ≤6 (400 mg QPM, Week 8): 3 (8.1) n (%)
- Imputed non-responder n (%), UAS7 = 0 (400 mg QPM, Week 9): 6 (16.2) n (%)
- Imputed non-responder n (%), UAS7 ≤6 (400 mg QPM, Week 9): 6 (16.2) n (%)
- Non-responder n (%), UAS7 = 0 (400 mg QPM, Week 9): 36 (97.3) n (%)
- Non-responder n (%), UAS7 ≤6 (400 mg QPM, Week 9): 34 (91.9) n (%)
- OR for rilzabrutinib vs. placebo, UAS7 = 0 (400 mg QPM, Week 9): 0.305
- OR for rilzabrutinib vs. placebo, UAS7 ≤6 (400 mg QPM, Week 9): 0.715
- RRD (%) for rilzabrutinib vs. placebo, UAS7 = 0 (400 mg QPM, Week 9): −5.6 %
- RRD (%) for rilzabrutinib vs. placebo, UAS7 ≤6 (400 mg QPM, Week 9): −3.0%
- Responder n (%), UAS7 = 0 (400 mg QPM, Week 9): 1 (2.7) n (%)
- Responder n (%), UAS7 ≤6 (400 mg QPM, Week 9): 3 (8.1) n (%)
- Imputed non-responder n (%), UAS7 = 0 (400 mg QPM, Week 10): 6 (16.2) n (%)
- Imputed non-responder n (%), UAS7 ≤6 (400 mg QPM, Week 10): 6 (16.2) n (%)
- Non-responder n (%), UAS7 = 0 (400 mg QPM, Week 10): 36 (97.3) n (%)
- Non-responder n (%), UAS7 ≤6 (400 mg QPM, Week 10): 35 (94.6) n (%)
- OR for rilzabrutinib vs. placebo, UAS7 = 0 (400 mg QPM, Week 10): 0.219
- OR for rilzabrutinib vs. placebo, UAS7 ≤6 (400 mg QPM, Week 10): 0.357
- RRD (%) for rilzabrutinib vs. placebo, UAS7 = 0 (400 mg QPM, Week 10): −8.7 %
- RRD (%) for rilzabrutinib vs. placebo, UAS7 ≤6 (400 mg QPM, Week 10): −8.6%
- Responder n (%), UAS7 = 0 (400 mg QPM, Week 10): 1 (2.7) n (%)
- Responder n (%), UAS7 ≤6 (400 mg QPM, Week 10): 2 (5.4) n (%)
- Imputed non-responder n (%), UAS7 = 0 (400 mg QPM, Week 11): 7 (18.9) n (%)
- Imputed non-responder n (%), UAS7 ≤6 (400 mg QPM, Week 11): 7 (18.9) n (%)
- Non-responder n (%), UAS7 = 0 (400 mg QPM, Week 11): 35 (94.6) n (%)
- Non-responder n (%), UAS7 ≤6 (400 mg QPM, Week 11): 34 (91.9) n (%)
- OR for rilzabrutinib vs. placebo, UAS7 = 0 (400 mg QPM, Week 11): 0.986
- OR for rilzabrutinib vs. placebo, UAS7 ≤6 (400 mg QPM, Week 11): 0.456
- RRD (%) for rilzabrutinib vs. placebo, UAS7 ≤6 (400 mg QPM, Week 11): −8.5%
- Responder n (%), UAS7 = 0 (400 mg QPM, Week 11): 2 (5.4) n (%)
- Responder n (%), UAS7 ≤6 (400 mg QPM, Week 11): 3 (8.1) n (%)
- Imputed non-responder n (%), UAS7 = 0 (400 mg QPM, Week 12): 10 (27.0) n (%)
- Imputed non-responder n (%), UAS7 ≤6 (400 mg QPM, Week 12): 10 (27.0) n (%)
- Non-responder n (%), UAS7 = 0 (400 mg QPM, Week 12): 36 (97.3) n (%)
- Non-responder n (%), UAS7 ≤6 (400 mg QPM, Week 12): 35 (94.6) n (%)
- OR for rilzabrutinib vs. placebo, UAS7 = 0 (400 mg QPM, Week 12): 0.219
- OR for rilzabrutinib vs. placebo, UAS7 ≤6 (400 mg QPM, Week 12): 0.438
- RRD (%) for rilzabrutinib vs. placebo, UAS7 = 0 (400 mg QPM, Week 12): −8.7 %
- RRD (%) for rilzabrutinib vs. placebo, UAS7 ≤6 (400 mg QPM, Week 12): −6.1%
- Responder n (%), UAS7 = 0 (400 mg QPM, Week 12): 1 (2.7) n (%)
- Responder n (%), UAS7 ≤6 (400 mg QPM, Week 12): 2 (5.4) n (%)
- Imputed non-responder n (%), UAS7 = 0 (400 mg TID, Week 1): 0 n (%)
- Imputed non-responder n (%), UAS7 ≤6 (400 mg TID, Week 1): 0 n (%)
- Non-responder n (%), UAS7 = 0 (400 mg TID, Week 1): 34 (97.1) n (%)
- Non-responder n (%), UAS7 ≤6 (400 mg TID, Week 1): 27 (77.1) n (%)
- OR for rilzabrutinib vs. placebo, UAS7 ≤6 (400 mg TID, Week 1): 4.809
- RRD (%) for rilzabrutinib vs. placebo, UAS7 = 0 (400 mg TID, Week 1): 0.2 %
- RRD (%) for rilzabrutinib vs. placebo, UAS7 ≤6 (400 mg TID, Week 1): 15.9 %
- Responder n (%), UAS7 = 0 (400 mg TID, Week 1): 1 (2.9) n (%)
- Responder n (%), UAS7 ≤6 (400 mg TID, Week 1): 8 (22.9) n (%)
- Imputed non-responder n (%), UAS7 = 0 (400 mg TID, Week 2): 0 n (%)
- Imputed non-responder n (%), UAS7 ≤6 (400 mg TID, Week 2): 0 n (%)
- Non-responder n (%), UAS7 = 0 (400 mg TID, Week 2): 31 (88.6) n (%)
- Non-responder n (%), UAS7 ≤6 (400 mg TID, Week 2): 27 (77.1) n (%)
- OR for rilzabrutinib vs. placebo, UAS7 = 0 (400 mg TID, Week 2): 4.736
- OR for rilzabrutinib vs. placebo, UAS7 ≤6 (400 mg TID, Week 2): 4.455
- RRD (%) for rilzabrutinib vs. placebo, UAS7 = 0 (400 mg TID, Week 2): 8.3 %
- RRD (%) for rilzabrutinib vs. placebo, UAS7 ≤6 (400 mg TID, Week 2): 15.3 %
- Responder n (%), UAS7 = 0 (400 mg TID, Week 2): 4 (11.4) n (%)
- Responder n (%), UAS7 ≤6 (400 mg TID, Week 2): 8 (22.9) n (%)

Reference: patent US20260256792A1, “TREATMENT OF CHRONIC SPONTANEOUS URTICARIA BY ADMINISTERING (R)-2-[3-[4-AMINO-3-(2-FLUORO-4-PHENOXY-PHENYL)PYRAZOLO[3,4-D]PYRIMIDIN-1-YL]PIPERIDINE-1-CARBONYL]-4-METHYL-4-[4-(OXETAN-3-YL)PIPERAZIN-1-YL]PENT-2-ENENITRILE” (priority 2023, published 2026)
